The experiment can be described thus: reduction of intraocular pressure. The class given is in vivo. The settings on record: 2% strength solution of the test compound; for Duration: duration of the decrease in intraocular pressure. The text has this: The results of investigations into the reduction of intraocular pressure by some typical compounds of the formula I, according to the invention, are listed in Table 2. The results are expressed as the percentage decrease in the intraocular pressure when a 2% strength solution of the test compound is used.

Experimental findings from EP0294695A2, “New polyoxygenated labdane derivatives, a process for their preparation, and their use as medicaments” (HOECHST AKTIENGESELLSCHAFT, priority 1987, dated 1988) are described below.

SMILES strings stand for the structures.

For `C=C[C@@]1(C)CC(=O)[C@]2(O)[C@@]3(C)[C@@H](OC(=O)Nc4ccccc4)CCC(C)(C)[C@@H]3[C@H](O)[C@H](OC(=O)Nc3ccccc3)[C@@]2(C)O1` [Compound 1], the “Decrease in intraocular pressure(%)” value was determined as 18% and the Duration is 5 h.
Consider `C=C[C@@]1(C)CC(=O)[C@]2(O)[C@@]3(C)[C@@H](O)CCC(C)(C)[C@@H]3[C@H](O)[C@H](OC(=O)NC)[C@@]2(C)O1` [Compound 2, 8,13-Epoxy-7β-methylaminocarbonyloxy-1α,6β,9α-trihydroxylabd-14-en-11-one], for which the “Decrease in intraocular pressure(%)” value was 23% and the Duration came out at 5 h.
As for `C=C[C@@]1(C)CC(=O)[C@]2(O)[C@@]3(C)[C@@H](O)CCC(C)(C)[C@@H]3[C@H](O)[C@H](OC(=O)NC(C)C)[C@@]2(C)O1` [Compound 3, 7β-isopropylaminocarbonyloxy-8,13-epoxy-1α,6β,9α-trihydroxylabd-14-en-11-one], the “Decrease in intraocular pressure(%)” value turned out to be 34% and the Duration came to 6 h.
The matching figures for `C=C[C@@]1(C)CC(=O)[C@]2(O)[C@@]3(C)[C@@H](O)CCC(C)(C)[C@@H]3[C@H](O)[C@H](OC(=O)NC(C)(C)C)[C@@]2(C)O1` [Compound 4, 7β-t-Butylaminocarbonyloxy-8,13-epoxy-1α,6β9α-trihydroxylabd-14-en-11-one]: 21% and 6 h.
